Columns and labels:
[1] = water uptake from the air (hygroscopicity); format: physicochemical
[2] = storage stability of the crystal form; format: physicochemical; conditions: prolonged storage

conversion to other crystal forms [2]: not converted to other crystal forms
Structure (SMILES): N#Cc1c(N2C[C@@H]3CCCN[C@@H]3C2)c(F)cc2c(=O)c(C(=O)O)cn(C3CC3)c12 [Pradofloxacin trihydrate, pradofloxacin trihydrate]
tendency to take up further water from the air [1]: does not show any tendency to take up further water from the air
